# Source: patent publication US20150105252A1, “SUBSTITUTED PYRAZOLES AS HERBICIDES” (E I DU PONT DE NEMOURS AND COMPANY, priority 2013, published 2015)
# Legend:
# [1] = system: oilseed rape; test: Test C postemergence; format: in vivo, Brassica napus
# How it was run: (§1)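 Pre- and postemergence greenhouse screen; vehicle was a non-phytotoxic solvent mix with surfactant. Preemergence: treatment applied right after sowing into loam and sand. Postemergence: treated at 1–4 leaves. Visual rating at 13–15 days, 100 = complete control.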
# [2] = system: velvetleaf; test: Test C postemergence; format: in vivo, Abutilon theophrasti
# How it was run: as §1
# [3] = system: johnsongrass; test: Test C postemergence; format: in vivo, Sorghum halepense
# How it was run: as §1
# [4] = system: ducksalad; test: Test B flood; format: in vivo, Heteranthera limosa; settings: 250 g ai/ha, visual rating on 0 to 100 scale (0 no effect, 100 complete control), 13 to 15 days
# How it was run: (§2)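 At two leaves, seedlings received the test compound via the paddy water, pots having been flooded 3 cm over the soil surface and kept so. Greenhouse-held for 13 to 15 days, then judged by eye against controls on a scale running 0 (no effect) to 100 (complete control).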
# [5] = system: foxtail, giant; test: Test A preemergence; format: in vivo, Setaria faberii; settings: preemergence
# How it was run: (§3)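 Greenhouse test in loam soil/sand blend; compounds formulated in non-phytotoxic solvent with surfactant, applied as preemergence directed soil spray or postemergence to plants 2–10 cm tall at one- to two-leaf stage. Injury rated visually versus untreated controls after approximately 10 days on a 0 (no effect) to 100 (complete control) scale.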
# [6] = system: barnyardgrass; test: Test B flood; format: in vivo, Echinochloa crus-galli; settings: 250 g ai/ha, visual rating on 0 to 100 scale (0 no effect, 100 complete control), 13 to 15 days
# How it was run: as §2
# [7] = system: waterhemp; test: Test C preemergence; format: in vivo, Amaranthus rudis; settings: for Waterhemp plant response rating: scale 0 to 100 (0 no effect, 100 complete control)
# How it was run: as §1
# [8] = system: pigweed; test: Test C postemergence; format: in vivo, Amaranthus retroflexus
# How it was run: as §1
# [9] = system: lambsquarters; test: Test C postemergence; format: in vivo, Chenopodium album
# How it was run: as §1
# [10] = system: nutsedge, yellow; test: Test C postemergence; format: in vivo, Cyperus esculentus
# How it was run: as §1
# [11] = system: barnyardgrass; test: Test A postemergence; format: in vivo, Echinochloa crus-galli
# How it was run: as §3
# [12] = system: oat, wild; test: Test C postemergence; format: in vivo, Avena fatua
# How it was run: as §1
# [13] = system: kochia; test: Test C postemergence; format: in vivo, Kochia scoparia
# How it was run: as §1
# [14] = system: rice; test: Test B flood; format: in vivo, Oryza sativa; settings: 250 g ai/ha, visual rating on 0 to 100 scale (0 no effect, 100 complete control), 13 to 15 days
# How it was run: as §2
# [15] = Postemergence, 31 g ai/ha, visually evaluated after 13 to 15 days
# [16] = postemergence, 62 g ai/ha, scale 0 to 100
# [17] = postemergence, 250 g ai/ha, scale 0 to 100 (0 no effect, 100 complete control)
# [18] = postemergence, 125 g ai/ha, scale 0 to 100, 0 no effect, 100 complete control
smiles,measurement,setting,value
CCOc1cc(C(=O)NC2CC2)nn1Cc1ccnc(OC(F)F)c1 [Compound 133],"Plant response rating (scale of 0 to 100 where 0 is no effect and 100 is complete control), Oilseed Rape",[1]; [15],50
same,Oilseed Rape plant response rating,[1]; [16],60
same,"Plant response rating, Oilseed Rape",[1]; [17],85
same,"Plant response rating, Oilseed Rape",[1]; [18],75
same,"Plant response rating (scale of 0 to 100 where 0 is no effect and 100 is complete control), Velvetleaf",[2]; [15],25
same,Velvetleaf plant response rating,[2]; [16],45
same,"Plant response rating, Velvetleaf",[2]; [17],70
same,"Plant response rating, Velvetleaf",[2]; [18],35
same,"Plant response rating (scale of 0 to 100 where 0 is no effect and 100 is complete control), Johnsongrass",[3]; [15],5
same,Johnsongrass plant response rating,[3]; [16],5
same,"Plant response rating, Johnsongrass",[3]; [17],5
same,"Plant response rating, Johnsongrass",[3]; [18],5
same,"Plant response rating, Ducksalad",[4],90
same,"Foxtail, Giant plant response rating","[5]; 125 g ai/ha, visual injury, 0 to 100 scale, approx. 10 days",100
same,"Foxtail, Giant plant response rating","[5]; 500 g ai/ha, visual injury after approx. 10 days, 0 to 100 scale (0 no effect, 100 complete control)",100
same,"Plant response rating, Barnyardgrass",[6],40
same,"Plant response rating (scale of 0 to 100), Waterhemp","[7]; Preemergence, 250 g ai/ha",100
same,Waterhemp plant response rating,"[7]; preemergence, 31 g ai/ha, visual rating, 13 to 15 days",85
same,Waterhemp plant response rating,"[7]; preemergence, 62 g ai/ha, 13 to 15 days",100
same,"Plant response rating, Waterhemp","[7]; preemergence, 125 g ai/ha, 13 to 15 days, scale 0 to 100, 0 = no effect, 100 = complete control",100
same,"Plant response rating (scale of 0 to 100 where 0 is no effect and 100 is complete control), Pigweed",[8]; [15],50
same,Pigweed plant response rating,[8]; [16],60
same,"Plant response rating, Pigweed",[8]; [17],90
same,"Plant response rating, Pigweed",[8]; [18],80
same,"Plant response rating (scale of 0 to 100 where 0 is no effect and 100 is complete control), Lambsquarters",[9]; [15],50
same,Lambsquarters plant response rating,[9]; [16],55
same,"Plant response rating, Lambsquarters",[9]; [17],90
same,"Plant response rating, Lambsquarters",[9]; [18],90
same,"Plant response rating (scale of 0 to 100 where 0 is no effect and 100 is complete control), Nutsedge, Yellow",[10]; [15],5
same,"Nutsedge, Yellow plant response rating",[10]; [16],5
same,"Plant response rating, Nutsedge, Yellow",[10]; [17],15
same,"Plant response rating, Nutsedge, Yellow",[10]; [18],5
same,Barnyardgrass plant response rating,"[11]; Postemergence, 500 g ai/ha, 0 to 100 scale (0 no effect, 100 complete control)",100
same,Barnyardgrass plant response rating,"[11]; postemergence, 125 g ai/ha, about 10 days, visual rating on 0 to 100 scale (0 no effect, 100 complete control)",90
same,"Plant response rating (scale of 0 to 100 where 0 is no effect and 100 is complete control), Oat, Wild",[12]; [15],5
same,"Oat, Wild plant response rating",[12]; [16],5
same,"Plant response rating, Oat, Wild",[12]; [17],35
same,"Plant response rating, Oat, Wild",[12]; [18],15
same,"Plant response rating (scale of 0 to 100 where 0 is no effect and 100 is complete control), Kochia",[13]; [15],85
same,Kochia plant response rating,[13]; [16],90
same,"Plant response rating, Kochia",[13]; [17],90
same,"Plant response rating, Kochia",[13]; [18],90
same,"Plant response rating, Rice",[14],20
